Reference: publication PMC3265452 (PLoS Neglected Tropical Diseases, 2012)
Structures can show the parent of a compound that is named as a salt.

Target: AaDOP2 (Aedes aegypti, UniProt H6D5H2)
Assay: AaDOP2 antagonist screen of the LOPAC1280 library (HEK-CRELuc-Aadop2 cells, luminescence)
Type: cell-based
Conditions: not given

AaDOP2, sequence (H6D5H2 1-476): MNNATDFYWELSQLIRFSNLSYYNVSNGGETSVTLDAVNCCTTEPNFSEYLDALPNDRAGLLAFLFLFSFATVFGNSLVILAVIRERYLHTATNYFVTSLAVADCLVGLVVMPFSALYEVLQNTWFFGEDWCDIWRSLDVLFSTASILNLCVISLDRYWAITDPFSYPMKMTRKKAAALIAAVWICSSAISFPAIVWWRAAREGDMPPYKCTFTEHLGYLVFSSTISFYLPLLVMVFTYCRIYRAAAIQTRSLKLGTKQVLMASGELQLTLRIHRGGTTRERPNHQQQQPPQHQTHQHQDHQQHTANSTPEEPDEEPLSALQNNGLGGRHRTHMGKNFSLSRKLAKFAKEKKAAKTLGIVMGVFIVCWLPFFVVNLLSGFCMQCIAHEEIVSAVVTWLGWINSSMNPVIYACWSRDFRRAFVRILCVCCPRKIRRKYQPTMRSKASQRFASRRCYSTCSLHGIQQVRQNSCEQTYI

**Q.** OC(CN1CCN(c2cccc(Cl)c2)CC1)C(c1ccccc1)c1ccccc1 (stereo not shown) [Compound 195, BRL 15572] was tested. Which “Compound effect (percent receptor signaling in presence of test compound, relative lux units relative to the SCH23390 control)” value did it give?
**A.** 84

**Q.** How did the “Compound effect (percent receptor signaling in presence of test compound, relative lux units relative to the SCH23390 control)” value turn out when C1CCc2nnnn2CC1 [Compound 958, Pentylenetetrazole] was run?
**A.** 94

**Q.** For C[C@H]1c2cccc(O)c2C(=O)C2=C(O)[C@]3(O)C(=O)C(C(N)=O)=C(O)[C@@H](N(C)C)[C@@H]3[C@@H](O)[C@@H]21 [Compound 433, Doxycycline hydrochloride], which “Compound effect (percent receptor signaling in presence of test compound, relative lux units relative to the SCH23390 control)” value is on record?
**A.** 103

**Q.** For N[C@H](CCCCCP(=O)(O)O)C(=O)O [Compound 136, D(-)-2-Amino-7-phosphonoheptanoic acid], which “Compound effect (percent receptor signaling in presence of test compound, relative lux units relative to the SCH23390 control)” value is on record?
**A.** 102

**Q.** Which “Compound effect (percent receptor signaling in presence of test compound, relative lux units relative to the SCH23390 control)” value does the source give for CN1C[C@H](CNC(=O)OCc2ccccc2)C[C@@H]2c3cccc4c3c(cn4C)C[C@H]21 [Compound 761, Metergoline] here?
**A.** 33

**Q.** How did the “Compound effect (percent receptor signaling in presence of test compound, relative lux units relative to the SCH23390 control)” value turn out when COc1cc([C@@H]2c3cc4c(cc3[C@@H](O[C@@H]3O[C@@H]5CO[C@@H](C)O[C@H]5[C@H](O)[C@H]3O)[C@H]3COC(=O)[C@H]23)OCO4)cc(OC)c1O [Compound 474, Etoposide] was run?
**A.** 90

**Q.** How did the “Compound effect (percent receptor signaling in presence of test compound, relative lux units relative to the SCH23390 control)” value turn out when C=CC1=C(C)c2cc3[nH]c(cc4nc(cc5[nH]c(cc1n2)c(C)c5CCC(=O)O)C(CCC(=O)O)=C4C)c(C)c3C=C [Compound 978, Protoporphyrin IX disodium] was run?
**A.** 86

**Q.** For Cc1c2ccncc2c(C)c2c1[nH]c1ccccc12 [Compound 486, Ellipticine], which “Compound effect (percent receptor signaling in presence of test compound, relative lux units relative to the SCH23390 control)” value is on record?
**A.** 98

**Q.** Which “Compound effect (percent receptor signaling in presence of test compound, relative lux units relative to the SCH23390 control)” value does the source give for Cl.Clc1ccc(Cn2c(CN3CCCC3)nc3ccccc32)cc1 [Compound 269, Clemizole hydrochloride] here?
**A.** 96

**Q.** Which “Compound effect (percent receptor signaling in presence of test compound, relative lux units relative to the SCH23390 control)” value does the source give for CC[C@]1(O)C[C@H]2CN(CCc3c([nH]c4ccccc34)[C@@](C(=O)OC)(c3cc4c(cc3OC)N(C=O)[C@H]3[C@@](O)(C(=O)OC)[C@H](OC(C)=O)[C@]5(CC)C=CCN6CC[C@]43[C@@H]65)C2)C1 [Compound 1257, Vincristine sulfate] here?
**A.** 98

**Q.** C#CCn1c(=O)c2c(ncn2C)n(C)c1=O [Compound 459, 3,7-Dimethyl-I-propargylxanthine] was tested. Which “Compound effect (percent receptor signaling in presence of test compound, relative lux units relative to the SCH23390 control)” value did it give?
**A.** 101

**Q.** CCN(CC)CCCC(C)Nc1c2ccc(Cl)cc2nc2ccc(OC)cc12 (stereo not shown) [Compound 1033, Quinacrine dihydrochloride] was tested. Which “Compound effect (percent receptor signaling in presence of test compound, relative lux units relative to the SCH23390 control)” value did it give?
**A.** 94

**Q.** Which “Compound effect (percent receptor signaling in presence of test compound, relative lux units relative to the SCH23390 control)” value does the source give for O=C(N[C@@H](Cc1ccccc1)C(=O)CCl)OCc1ccccc1 [Compound 317, Z-L-Phe chloromethyl ketone] here?
**A.** 124

**Q.** Which “Compound effect (percent receptor signaling in presence of test compound, relative lux units relative to the SCH23390 control)” value does the source give for N[C@@H](Cn1oc(=O)[nH]c1=O)C(=O)O [Compound 1032, (+)-Quisqualic acid] here?
**A.** 80

**Q.** With O=C(OCCN1CCCCC1)c1c[nH]c2ccccc12 [Compound 371, SB 203186] as the molecule, how does the “Compound effect (percent receptor signaling in presence of test compound, relative lux units relative to the SCH23390 control)” value read?
**A.** 84

**Q.** How did the “Compound effect (percent receptor signaling in presence of test compound, relative lux units relative to the SCH23390 control)” value turn out when CN(C)CCCN1c2ccccc2Sc2ccccc21 [Compound 961, Promazine hydrochloride] was run?
**A.** 12

**Q.** Which “Compound effect (percent receptor signaling in presence of test compound, relative lux units relative to the SCH23390 control)” value does the source give for CCCCS(=N)(=O)CCC(N)C(=O)O (racemic) [Compound 168, DL-Buthionine-[S,R]-sulfoximine] here?
**A.** 77

**Q.** CN1C2CCC1CC(OC(c1ccccc1)c1ccc(Cl)cc1)C2.Cl (stereo not drawn) [Compound 347, 4'-Chloro-3-alpha-(diphenylmethoxy)tropane hydrochloride] was tested. Which “% of the SCH23390 effect (percent inhibition of receptor response relative to the SCH23390 control)” value did it give?
**A.** 85%

**Q.** And the “Compound effect (percent receptor signaling in presence of test compound, relative lux units relative to the SCH23390 control)” value?
**A.** 15

**Q.** O=C(CCCN1CCC(O)(c2cccc(C(F)(F)F)c2)CC1)c1ccc(F)cc1 [Compound 1221, Trifluperidol hydrochloride] was tested. Which “Compound effect (percent receptor signaling in presence of test compound, relative lux units relative to the SCH23390 control)” value did it give?
**A.** 68

**Q.** Which “Compound effect (percent receptor signaling in presence of test compound, relative lux units relative to the SCH23390 control)” value does the source give for CC(=O)C(C)=O [Compound 375, 2,3-Butanedione] here?
**A.** 88

**Q.** For Cn1cnc2c(NC3CCCC3)ncnc21 [Compound 885, N6-Cyclopentyl-9-methyladenine], which “Compound effect (percent receptor signaling in presence of test compound, relative lux units relative to the SCH23390 control)” value is on record?
**A.** 105

**Q.** How did the “Compound effect (percent receptor signaling in presence of test compound, relative lux units relative to the SCH23390 control)” value turn out when CNC(=C[N+](=O)[O-])NCCSCc1ccc(CN(C)C)o1 [Compound 1060, Ranitidine hydrochloride] was run?
**A.** 106

**Q.** For “17alpha-hydroxyprogesterone [Compound 593]”, which “Compound effect (percent receptor signaling in presence of test compound, relative lux units relative to the SCH23390 control)” value is on record?
**A.** 83

**Q.** How did the “Compound effect (percent receptor signaling in presence of test compound, relative lux units relative to the SCH23390 control)” value turn out when O=C(c1ccc(F)cc1)C1CCN(CCn2c(=O)[nH]c3ccccc3c2=O)CC1 [Compound 1128, Ketanserin tartrate] was run?
**A.** 53

**Q.** Which “Compound effect (percent receptor signaling in presence of test compound, relative lux units relative to the SCH23390 control)” value does the source give for COC(=O)Nc1nc2ccc(C(=O)c3cccs3)cc2[nH]1 [Compound 738, Nocodazole] here?
**A.** 89

**Q.** Which “Compound effect (percent receptor signaling in presence of test compound, relative lux units relative to the SCH23390 control)” value does the source give for C[C@]12CC[C@@H](O)C[C@@H]1CC[C@@H]1[C@@H]2CC[C@]2(C)[C@@H](C(=O)CO)CC[C@@H]12 [Compound 930, 3-alpha,21-Dihydroxy-5-alpha-pregnan-20-one] here?
**A.** 96

**Q.** With CCCNC(=O)NS(=O)(=O)c1ccc(Cl)cc1 [Compound 231, Chlorpropamide] as the molecule, how does the “Compound effect (percent receptor signaling in presence of test compound, relative lux units relative to the SCH23390 control)” value read?
**A.** 98

**Q.** For CC(N)Cc1c[nH]c2ccc(O)cc12.O=C(O)/C=C\C(=O)O (stereo not drawn) [Compound 819, alpha-Methyl-5-hydroxytryptamine maleate], which “Compound effect (percent receptor signaling in presence of test compound, relative lux units relative to the SCH23390 control)” value is on record?
**A.** 92

**Q.** With O=c1c2ccccc2nc2n1CCc1c-2[nH]c2ccccc12 [Compound 1046, Rutaecarpine] as the molecule, how does the “Compound effect (percent receptor signaling in presence of test compound, relative lux units relative to the SCH23390 control)” value read?
**A.** 78

**Q.** COc1cc2nc(N3CCN(C(=O)C4CCCO4)CC3)nc(N)c2cc1OC (stereo not shown) [Compound 1178, Terazosin hydrochloride] was tested. Which “Compound effect (percent receptor signaling in presence of test compound, relative lux units relative to the SCH23390 control)” value did it give?
**A.** 107

**Q.** How did the “Compound effect (percent receptor signaling in presence of test compound, relative lux units relative to the SCH23390 control)” value turn out when c1ccc2c(CC3=NCCN3)cccc2c1 [Compound 859, Naphazoline hydrochloride] was run?
**A.** 90

**Q.** For NC/C=C/C(=O)O [Compound 1155, (E)-4-amino-2-butenoic acid], which “Compound effect (percent receptor signaling in presence of test compound, relative lux units relative to the SCH23390 control)” value is on record?
**A.** 126

**Q.** Which “Compound effect (percent receptor signaling in presence of test compound, relative lux units relative to the SCH23390 control)” value does the source give for Cc1cnc(NC(=O)C2=C(O)c3ccccc3S(=O)(=O)N2C)s1 [Compound 765, Meloxicam sodium] here?
**A.** 115

**Q.** With CN(C)CC[C@@H](c1ccc(Cl)cc1)c1ccccn1 [Compound 267, (+)-Chlorpheniramine maleate] as the molecule, how does the “Compound effect (percent receptor signaling in presence of test compound, relative lux units relative to the SCH23390 control)” value read?
**A.** 106

**Q.** O=S(=O)(c1cccc2cnccc12)N1CCNCC1 [Compound 634, HA-100] was tested. Which “Compound effect (percent receptor signaling in presence of test compound, relative lux units relative to the SCH23390 control)” value did it give?
**A.** 71

**Q.** How did the “Compound effect (percent receptor signaling in presence of test compound, relative lux units relative to the SCH23390 control)” value turn out when C[N+]1(C)[C@@H]2CC[C@H]1C[C@@H](OC(=O)C(CO)c1ccccc1)C2 (stereo partly shown) [Compound 75, Atropine methyl bromide] was run?
**A.** 105

**Q.** Which “Compound effect (percent receptor signaling in presence of test compound, relative lux units relative to the SCH23390 control)” value does the source give for O=C1NC(=O)C(c2ccccc2)(c2ccccc2)N1 [Compound 385, Phenytoin sodium] here?
**A.** 77

**Q.** Which “Compound effect (percent receptor signaling in presence of test compound, relative lux units relative to the SCH23390 control)” value does the source give for NCS-356 [Compound 849] here?
**A.** 99

Same assay, conditions: 10 µM compound, 300 nM dopamine, 2 hr; hit = compound effect <20

**Q.** Which “Compound effect (percent receptor signaling in presence of test compound, relative lux units relative to the SCH23390 control)” value does the source give for N[C@@H](Cn1cc(I)c(=O)[nH]c1=O)C(=O)O [Compound 1268, S-5-Iodowillardiine] here?
**A.** 130%

**Q.** With Cc1ccc(S(=O)(=O)N[C@@H](Cc2ccccc2)C(=O)CCl)cc1 [Compound 1172, N-p-Tosyl-L-phenylalanine chloromethyl ketone] as the molecule, how does the “Compound effect (percent receptor signaling in presence of test compound, relative lux units relative to the SCH23390 control)” value read?
**A.** 83%

**Q.** How did the “Compound effect (percent receptor signaling in presence of test compound, relative lux units relative to the SCH23390 control)” value turn out when “Dequalinium analog, C-14 linker [Compound 368]” was run?
**A.** 39%

**Q.** With C[C@](N)(CCP(=O)(O)O)C(=O)O.Cl [Compound 781, (S)-MAP4 hydrochloride] as the molecule, how does the “Compound effect (percent receptor signaling in presence of test compound, relative lux units relative to the SCH23390 control)” value read?
**A.** 100%

**Q.** Pyrazinecarboxamide [Compound 966] was tested. Which “Compound effect (percent receptor signaling in presence of test compound, relative lux units relative to the SCH23390 control)” value did it give?
**A.** 79%

**Q.** Which “Compound effect (percent receptor signaling in presence of test compound, relative lux units relative to the SCH23390 control)” value does the source give for C[C@@H](CN1CCC(Cc2ccccc2)CC1)[C@@H](O)c1ccc(O)cc1.Cl [Compound 1053, Ro 25-6981 hydrochloride] here?
**A.** 70%

**Q.** How did the “Compound effect (percent receptor signaling in presence of test compound, relative lux units relative to the SCH23390 control)” value turn out when COC(=O)[C@@H](N)CCCN=C(N)N[N+](=O)[O-].Cl [Compound 861, NG-Nitro-L-arginine methyl ester hydrochloride] was run?
**A.** 96%

**Q.** IMID-4F hydrochloride [Compound 639] was tested. Which “Compound effect (percent receptor signaling in presence of test compound, relative lux units relative to the SCH23390 control)” value did it give?
**A.** 109%

**Q.** For CCCn1c(=O)c2[nH]c(C3CCCC3)nc2n(CCCOC(=O)c2ccc(S(=O)(=O)F)cc2)c1=O [Compound 531, FSCPX], which “Compound effect (percent receptor signaling in presence of test compound, relative lux units relative to the SCH23390 control)” value is on record?
**A.** 97%

**Q.** How did the “Compound effect (percent receptor signaling in presence of test compound, relative lux units relative to the SCH23390 control)” value turn out when CC1=C(CC(=O)O)c2cc(F)ccc2/C1=C\c1ccc(S(C)(=O)=O)cc1 [Compound 1080, Sulindac sulfone] was run?
**A.** 122%

**Q.** With CCN(CC)CCNC(=O)c1ccc(NC(C)=O)cc1.Cl [Compound 65, N-Acetylprocainamide hydrochloride] as the molecule, how does the “Compound effect (percent receptor signaling in presence of test compound, relative lux units relative to the SCH23390 control)” value read?
**A.** 126%

**Q.** With O=C(O)/C=C\C(=O)O.c1cnc(N2CCN(Cc3ccc4c(c3)OCO4)CC2)nc1 [Compound 993, Piribedil maleate] as the molecule, how does the “Compound effect (percent receptor signaling in presence of test compound, relative lux units relative to the SCH23390 control)” value read?
**A.** 120%

Same assay, conditions: read-out: % of the SCH23390 effect (percent inhibition of receptor response relative to the SCH23390 control)

**Q.** Which inhibition at 10 µM does the source give for CN(C)CCCN1c2ccccc2Sc2ccccc21 [Compound 961, Promazine hydrochloride] here?
**A.** 88%
